Experimental data from PubChem BioAssay (NCI).
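In this assay, cells in 96-well plates receive the compound at five concentrations for 48 hours. Endpoints are linearly interpolated between the surrounding concentrations. At the GI50, growth is halved. The concentration for full growth arrest is given as TGI.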

What was measured:
Experiment in all cases: growth of human tumour cells (NCI), 48 h
[1] = system: HOP-92 NSCLC
[2] = system: SK-MEL-5 melanoma
[3] = system: HL-60(TB) leukemia
[4] = system: SF-539 CNS
[5] = system: OVCAR-3 ovarian
[6] = system: OVCAR-8 ovarian
[7] = system: RXF 393 renal
[8] = system: A498 renal
[9] = system: LOX IMVI melanoma
[10] = system: UO-31 renal
[11] = system: NCI-H226 lung
[12] = system: HCT-15 colon
[13] = system: M14 melanoma
[14] = system: 786-0 renal
[15] = system: NCI/ADR-RES ovarian
[16] = system: SN12C renal
[17] = system: IGROV1 ovarian
[18] = system: K-562 leukemia
[19] = system: HCC-2998 colon
[20] = system: ACHN renal
[21] = system: TK-10 renal
[22] = system: UACC-257 melanoma
[23] = system: NCI-H23 lung
[24] = system: MDA-MB-231 breast
[25] = system: HT29 colon
[26] = system: SW-620 colon
[27] = system: PC-3 prostate
[28] = system: NCI-H522 lung
[29] = system: EKVX NSCLC
[30] = system: A549 NSCLC
[31] = system: SNB-75 CNS
[32] = system: OVCAR-5 ovarian
[33] = system: MCF7 breast
[34] = system: SF-268 CNS
[35] = system: MDA-MB-435
[36] = system: SK-MEL-2 melanoma
[37] = system: CCRF-CEM leukemia
[38] = system: HCT-116 colon
[39] = system: UACC-62 melanoma
[40] = system: SR leukemia
[41] = system: HS 578T breast
[42] = system: U251 CNS
[43] = system: COLO 205 colon
[44] = system: SK-MEL-28 melanoma
[45] = system: SNB-19 CNS
[46] = system: RPMI-8226 leukemia
[47] = system: DU-145 prostate
[48] = system: SF-295 CNS
[49] = system: BT-549 breast
[50] = system: KM12 colon
[51] = system: MOLT-4 leukemia
[52] = system: OVCAR-4 ovarian
[53] = system: SK-OV-3 ovarian
[54] = system: T-47D breast
[55] = system: NCI-H460 lung

Q: What does the source list for CC1=C2C(=C[C@@](C)(CO)[C@@H]2OC(=O)N(C)CCN(C)C(=O)OC(C)(C)C)C(=O)[C@](C)(O)C12CC2?
A: GI50 [1]: 8.08 µM; TGI [1]: 25.1 µM; GI50 [2]: 8.84 µM; TGI [2]: 16.4 µM; GI50 [3]: 2.3 µM; TGI [3]: 46.4 µM; GI50 [4]: 7.92 µM; TGI [4]: 21.2 µM; GI50 [5]: 2.31 µM; TGI [5]: 21 µM; GI50 [6]: 6.51 µM; TGI [6]: 45.7 µM; GI50 [7]: 1.22 µM; TGI [7]: 4.06 µM; GI50 [8]: 8.8 µM; TGI [8]: 20.1 µM; GI50 [9]: 12.2 µM; TGI [9]: > 50 µM; GI50 [10]: 2.17 µM; TGI [10]: 14.9 µM; GI50 [11]: 11.7 µM; TGI [11]: 34.7 µM; GI50 [12]: 3.98 µM; TGI [12]: > 50 µM; GI50 [13]: 6.36 µM; TGI [13]: 20.8 µM; GI50 [14]: 11.6 µM; TGI [14]: 37.8 µM; GI50 [15]: 3.05 µM; TGI [15]: 23.7 µM; GI50 [16]: 11.1 µM; TGI [16]: > 50 µM; GI50 [17]: 1.97 µM; TGI [17]: 18.8 µM; GI50 [18]: 21.4 µM; TGI [18]: > 50 µM; GI50 [19]: 8.3 µM; TGI [19]: 26.2 µM; GI50 [20]: 2.6 µM; TGI [20]: 32.6 µM; GI50 [21]: 13.6 µM; TGI [21]: 35.2 µM; GI50 [22]: 10.1 µM; TGI [22]: 26.3 µM; GI50 [23]: 2.08 µM; TGI [23]: 15.9 µM; GI50 [24]: 9.64 µM; TGI [24]: 39.3 µM; GI50 [25]: 2.32 µM; TGI [25]: > 50 µM; GI50 [26]: 12.8 µM; TGI [26]: > 50 µM; GI50 [27]: 7.19 µM; TGI [27]: 28.6 µM; GI50 [28]: 6.27 µM; TGI [28]: 25.2 µM; GI50 [29]: 10.7 µM; TGI [29]: 29.1 µM; GI50 [30]: 5.88 µM; TGI [30]: > 50 µM; GI50 [31]: 5.29 µM; TGI [31]: 11.8 µM; GI50 [32]: 2.67 µM; TGI [32]: > 50 µM; GI50 [33]: 3.35 µM; TGI [33]: > 50 µM; GI50 [34]: 1.78 µM; TGI [34]: 18.7 µM; GI50 [35]: 9.74 µM; TGI [35]: 23.1 µM; GI50 [36]: 7.63 µM; TGI [36]: 17.3 µM; GI50 [37]: 18.8 µM; TGI [37]: > 50 µM; GI50 [38]: 2.76 µM; TGI [38]: > 50 µM; GI50 [39]: 8.33 µM; TGI [39]: 17.8 µM; GI50 [40]: 2.39 µM; TGI [40]: > 50 µM; GI50 [41]: 15.3 µM; TGI [41]: > 50 µM; GI50 [42]: 5.25 µM; TGI [42]: 46.1 µM; GI50 [43]: 5.27 µM; TGI [43]: 14.3 µM; GI50 [44]: 9.83 µM; TGI [44]: 26.5 µM; GI50 [45]: 10.9 µM; TGI [45]: > 50 µM; GI50 [46]: 5.83 µM; TGI [46]: 43.8 µM; GI50 [47]: 1.78 µM; TGI [47]: 32.4 µM; GI50 [48]: 1.8 µM; TGI [48]: 33.1 µM; GI50 [49]: 6.61 µM; TGI [49]: 20.6 µM; GI50 [50]: 9.9 µM; TGI [50]: > 50 µM; GI50 [51]: 31.5 µM; TGI [51]: > 50 µM; GI50 [52]: 4.68 µM; TGI [52]: 22.6 µM; GI50 [53]: 6.93 µM; TGI [53]: 23 µM; GI50 [54]: 5.05 µM; TGI [54]: 35.2 µM; GI50 [55]: 1.45 µM; TGI [55]: 5.42 µM
